Key:
[1] = Biodegradability in accordance with OECD 301 B
Description: (§1) For the cationic surfactant type 1 from Table 2, the biodegradability and toxicity was determined in accordance with OECD 301 B against algae.

algae = format: cell-based
Description: as §1

CCCCCCCCCCCCCCCCCCCCCC[N+](C)(C)C.[Cl-] [behentrimonium chloride]
Biodegradability [1]: not degraded
Toxicity towards algae (algae): < 1 mg/L

Source: patent publication US20110014148A1, “Cationic Surfactants Having Improved Properties” (COGNIS IP MANAGEMENT GMBH, priority 2008, published 2011)
